For 15 molecules, TGI and GI50 results are on record in PubChem BioAssay (NCI).

Some test systems named below: 786-0 renal; MALME-3M melanoma; COLO 205 colon; CCRF-CEM leukemia; SK-MEL-2 melanoma; UACC-62 melanoma; HCC-2998 colon; SR leukemia; HCT-116 colon; NCI-H522 lung; HT29 colon; UACC-257 melanoma; M14 melanoma; T-47D breast; A498 renal; MDA-MB-231 breast; MCF7 breast; OVCAR-4 ovarian.
Common to all, as to experiment: NCI anticancer screen, dose series, 48 h

The structures appear in SMILES notation.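 Step 1: Grow cells in 96-well plates. Step 2: Expose to compound for 48 hours at 5 concentrations. Step 3: Interpolate endpoints linearly; if unreached, use highest concentration. GI50 = concentration required for 50% inhibition of growth. TGI: concentration producing complete growth inhibition.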 Where only a bound is given, the exact number is not on record here.

With `CCC12CCCNC1c1c(n(C)c3ccccc13)C(C(=O)OC)C2` (stereo unspecified), the TGI is over 275 µM in the assay with 786-0 renal; over 275 µM with MALME-3M melanoma; 82.5 µM in the assay with COLO 205 colon; over 275 µM with CCRF-CEM leukemia; 259 µM in the assay on SK-MEL-2 melanoma; over 275 µM with UACC-62 melanoma. Also, the TGI was over 275 µM with HCC-2998 colon; over 275 µM in the assay with SR leukemia; over 275 µM in the assay with HCT-116 colon; 37.6 µM in the assay on NCI-H522 lung; 114 µM with HT29 colon; 255 µM in the assay with UACC-257 melanoma.
For the molecule `Cc1c(/C=N/NC(=S)Nc2ccccc2)c(=O)n(-c2ccccc2)n1C`, the TGI in the assay on 786-0 renal, in the assay on M14 melanoma, in the assay on COLO 205 colon, in the assay on T-47D breast, in the assay with CCRF-CEM leukemia and with SK-MEL-2 melanoma was over 100 µM each time. Also, the TGI with UACC-62 melanoma, in the assay on A498 renal, in the assay on HCC-2998 colon, in the assay on SR leukemia, with MDA-MB-231 breast and in the assay with MCF7 breast was over 100 µM throughout. Besides, the TGI in the assay on HCT-116 colon, with OVCAR-4 ovarian, with HT29 colon and in the assay on UACC-257 melanoma was over 100 µM throughout.
Turning to `Cc1cc(C)nc(SCC(=O)OC2CC(C)CCC2C(C)C)n1` (stereo unspecified), the TGI in the assay on 786-0 renal worked out at 42.6 µM; in the assay with M14 melanoma, 37 µM; in the assay with MALME-3M melanoma it was 41.1 µM; in the assay with COLO 205 colon it was 31 µM; in the assay on T-47D breast it was 54.2 µM; in the assay on CCRF-CEM leukemia, 42.5 µM. The TGI in the assay on SK-MEL-2 melanoma was determined as 41.9 µM; in the assay with UACC-62 melanoma it was 33.9 µM; with A498 renal it was 47.2 µM; in the assay on MDA-MB-231 breast, 49.7 µM; in the assay on MCF7 breast, 50.7 µM; in the assay on HCT-116 colon it was 47 µM. Also, the TGI is 46 µM with NCI-H522 lung, 50.6 µM in the assay on OVCAR-4 ovarian, 39.9 µM in the assay with HT29 colon and 41.7 µM with UACC-257 melanoma.
Turning to `Cc1ccc2c(c1)C1(OC(=O)c3ccccc31)c1ccc(F)cc1O2` (stereo unspecified), the TGI in the assay with 786-0 renal, in the assay with M14 melanoma, in the assay with MALME-3M melanoma, in the assay with COLO 205 colon, in the assay on CCRF-CEM leukemia and in the assay with SK-MEL-2 melanoma was over 100 µM in each case. Further, the TGI is over 100 µM in the assay with UACC-62 melanoma; over 100 µM in the assay on HCC-2998 colon; 73.8 µM in the assay on SR leukemia; over 100 µM with HCT-116 colon; over 100 µM with NCI-H522 lung; over 100 µM in the assay on OVCAR-4 ovarian. The TGI with HT29 colon and in the assay on UACC-257 melanoma was over 100 µM each time.
As to `CC(Oc1ccc(OCC2CCCCC2)cc1)C(=O)NCCO` (stereo unspecified), the TGI with 786-0 renal, with M14 melanoma, in the assay with MALME-3M melanoma, in the assay with CCRF-CEM leukemia, in the assay on SK-MEL-2 melanoma and in the assay on UACC-62 melanoma was over 100 µM in each case. The TGI in the assay on A498 renal, in the assay with HCT-116 colon, in the assay with NCI-H522 lung, in the assay on OVCAR-4 ovarian, in the assay with HT29 colon and in the assay with UACC-257 melanoma was over 100 µM each time.
As to `Cc1ccc(C2N=C(N)NC3=C2CCOc2c3ccc3ccccc23)cc1` (stereo unspecified), the TGI in the assay with 786-0 renal is over 71.7 µM; in the assay on M14 melanoma, over 55.9 µM; with MALME-3M melanoma, over 40.6 µM; in the assay with COLO 205 colon, over 61.6 µM; in the assay on T-47D breast, over 65.3 µM; in the assay with CCRF-CEM leukemia it was 3.71 µM. The TGI in the assay with SK-MEL-2 melanoma is over 100 µM; in the assay with UACC-62 melanoma, 57.5 µM; in the assay on A498 renal, 41 µM; in the assay on HCC-2998 colon, 76.4 µM; in the assay with SR leukemia it was over 100 µM; in the assay on MDA-MB-231 breast it was 32.7 µM. For the same molecule, the TGI is over 51.5 µM in the assay on MCF7 breast; 12.3 µM in the assay with HCT-116 colon; over 100 µM in the assay on NCI-H522 lung; over 83.7 µM in the assay with OVCAR-4 ovarian; over 66.7 µM with HT29 colon; over 65.7 µM in the assay with UACC-257 melanoma. Further, in the assay with MALME-3M melanoma, the GI50 is 4.7 µM.
Turning to `Cc1cc2oc(-c3ccccc3)c(C)c(=O)c2c2c1OC(C)(C)S2`, the TGI with 786-0 renal, in the assay with M14 melanoma, in the assay with MALME-3M melanoma, in the assay with COLO 205 colon, with CCRF-CEM leukemia and in the assay with SK-MEL-2 melanoma was over 100 µM in each case. Moreover, the TGI with UACC-62 melanoma, in the assay on HCC-2998 colon, in the assay on SR leukemia, in the assay on HCT-116 colon, with NCI-H522 lung and in the assay on OVCAR-4 ovarian was over 100 µM each time. Besides, the TGI with HT29 colon and in the assay with UACC-257 melanoma was over 100 µM each time.
Turning to `Cc1cc(C)n2c(-c3ccccc3)c(C)cc2n1`, the TGI is over 100 µM in the assay with 786-0 renal; over 100 µM with M14 melanoma; over 100 µM with MALME-3M melanoma; over 100 µM in the assay on COLO 205 colon; 43.6 µM in the assay on CCRF-CEM leukemia; over 100 µM in the assay on SK-MEL-2 melanoma. Also, the TGI in the assay on UACC-62 melanoma is over 100 µM; in the assay on A498 renal, over 100 µM; in the assay with HCC-2998 colon, over 100 µM; in the assay on HCT-116 colon, over 100 µM; with NCI-H522 lung it was 64.4 µM; in the assay with OVCAR-4 ovarian, over 100 µM. The TGI in the assay with HT29 colon and with UACC-257 melanoma was over 100 µM in each case.
Take `COc1ccc(N2C(=O)c3c(c4[nH]c5ccc(OC)cc5c4c4ccc(C(C)(C)C)cc34)C2=O)cc1`: the TGI with 786-0 renal, with M14 melanoma, in the assay with MALME-3M melanoma, in the assay with COLO 205 colon, in the assay on CCRF-CEM leukemia and in the assay with SK-MEL-2 melanoma was over 100 µM each time. For the same molecule, the TGI in the assay with HCC-2998 colon, in the assay with HCT-116 colon, with NCI-H522 lung, with OVCAR-4 ovarian, in the assay on HT29 colon and with UACC-257 melanoma was over 100 µM each time.
For `C[C@H](NC(=O)n1c2ccccc2c2ccccc21)C(=O)O`, the TGI with 786-0 renal, in the assay on MALME-3M melanoma, with COLO 205 colon, with CCRF-CEM leukemia, with SK-MEL-2 melanoma and in the assay with UACC-62 melanoma was over 100 µM in each case. Besides, the TGI with HCC-2998 colon, in the assay with SR leukemia, with HCT-116 colon, in the assay on NCI-H522 lung, in the assay on HT29 colon and with UACC-257 melanoma was over 100 µM each time.
Take `Cc1ccc2c(c1)C1C(CO2)C(c2ccccc2)=NN1c1ccccc1` (stereo unspecified): the TGI in the assay on 786-0 renal, in the assay with MALME-3M melanoma, in the assay with COLO 205 colon, in the assay with CCRF-CEM leukemia, in the assay on SK-MEL-2 melanoma and in the assay with A498 renal was over 100 µM each time. Moreover, the TGI in the assay with HCC-2998 colon, with HCT-116 colon, with NCI-H522 lung, with HT29 colon and in the assay on UACC-257 melanoma was over 100 µM each time.
With `COC(=O)C1=CC2CC1C(S(=O)(=O)c1ccccc1)C2S(=O)(=O)c1ccccc1` (stereo unspecified), the TGI worked out at 22.2 µM with 786-0 renal; 25.5 µM with M14 melanoma; 23.5 µM with MALME-3M melanoma; 22 µM in the assay on COLO 205 colon; 8.44 µM in the assay on CCRF-CEM leukemia; 67.9 µM in the assay on UACC-62 melanoma. In addition, the TGI was 42.9 µM in the assay on A498 renal; 34.4 µM in the assay on HCC-2998 colon; 11.3 µM in the assay with SR leukemia; 28.7 µM with HCT-116 colon; 39.9 µM in the assay with OVCAR-4 ovarian; 28.9 µM with HT29 colon. The molecule further yielded a TGI with UACC-257 melanoma of 32.7 µM.
As for `C/C(=N\NS(=O)(=O)c1ccc(C)cc1)c1cc2ccccc2n1C`, the TGI in the assay on 786-0 renal, in the assay with M14 melanoma, in the assay with MALME-3M melanoma, in the assay with COLO 205 colon, in the assay on CCRF-CEM leukemia and in the assay on SK-MEL-2 melanoma was over 100 µM in each case. Further, the TGI with UACC-62 melanoma, with A498 renal, in the assay on HCC-2998 colon, in the assay with SR leukemia, with HCT-116 colon and with NCI-H522 lung was over 100 µM in each case. The TGI in the assay on OVCAR-4 ovarian, in the assay with HT29 colon and with UACC-257 melanoma was over 100 µM throughout.
`CC(=O)OC1CC2(C)OC(Cc3ccccc32)O1` (stereo unspecified): the TGI with 786-0 renal, in the assay on M14 melanoma, with MALME-3M melanoma, in the assay with COLO 205 colon, in the assay with CCRF-CEM leukemia and with SK-MEL-2 melanoma was over 100 µM in each case. Moreover, the TGI in the assay with UACC-62 melanoma, with HCC-2998 colon, in the assay on SR leukemia, in the assay with HCT-116 colon, in the assay on NCI-H522 lung and in the assay with HT29 colon was over 100 µM each time. This molecule also came in with a TGI in the assay with UACC-257 melanoma of over 100 µM.
With `c1cnc2c(c1)-n1cccc1C1(CCSC1)NN2` (stereo unspecified), the TGI in the assay on 786-0 renal, in the assay with M14 melanoma, with MALME-3M melanoma, with COLO 205 colon, in the assay with CCRF-CEM leukemia and in the assay with SK-MEL-2 melanoma was over 100 µM each time. The TGI with HCC-2998 colon, with SR leukemia, with HCT-116 colon, in the assay with NCI-H522 lung, in the assay with OVCAR-4 ovarian and in the assay with HT29 colon was over 100 µM throughout. The TGI in the assay on UACC-257 melanoma was over 100 µM.
